Assay results as given in paper PMC7159882, “Polyunsaturated fatty acid analogues differentially affect cardiac NaV, CaV, and KV channels through unique mechanisms” (eLife, 2020).

Columns and labels:
Cav1.2/β3/α2δ = target: T1, Cav1.2/β3/α2δ (Homo sapiens, UniProt Q13936); test: Two-electrode voltage clamp of Cav1.2/β3/α2δ expressed in Xenopus oocytes (Ba2+ as charge carrier); assay type: cell-based; conditions: for ICa I/I0: relative current at 0 mV
T1 construct: expressed in transfected cells; host or cells: Xenopus laevis oocytes (cRNA injection, Cav1.2:β3:α2δ 2:1:1 by weight)
Description: Molecular Biology cRNA encoding Kv7.1 (UniProt: P51787), KCNE1 (UniProt: P15382.1), Nav1.5 (UniProt: Q14524.1), Nav β1 (UniProt: […]), Nav β3 (UniProt: […]), Cav1.2 (GenBank: CAA84346), Cav β3 (Uniprot: P54286), Cav β2 (Uniprot: P54288), and Cav α2δ (Uniprot: P13806) were transcribed using the mMessage mMachine T7 kit (Ambion). 50 ng of cRNA was injected into defolliculated Xenopus laevis oocytes (Ecocyte, Austin, TX): For Kv7.1/KCNE1 channel expression, we injected a 3:1, weight:weight (Kv7.1:KCNE1) cRNA ratio. For Nav1.5 channel expression, we injected a 2:1, weight:weight (Nav1.5:β1) cRNA ratio. For Cav1.2 channel expression, we injected a 2:1:1, weight:weight (Cav1.2:β3:α2δ) cRNA ratio. The exact stoichiometry for channel macromolecular complexes, including α -subunits and auxiliary subunits is not clear for many ion channels. For example, there have been multiple reported stoichiometries for Kv7.1:KCNE1 determined in heterologous expression systems with some groups reporting flexible stoichiometry of 4 Kv7.1: 1–4 KCNE1 and others reporting a fixed stoichiometry of 4 Kv7.1: 2 KCNE1 ([Murray et al., 2016]; [Nakajo et al., 2010]). The ratios of cRNA of α- and auxiliary subunits that we injected in Xenopus laevis oocytes are such that all α-subunits are assumed to be in complex with auxiliary subunits. This allows a more homogenous population of ion channels with auxiliary subunits. One caveat to expressing ion channels as macromolecular complexes is that there are many other auxiliary subunits that could associate with the channel α -subunit that are present in cardiomyocytes and have the potential to alter PUFA-induced effects, but that are not being co-expressed in our experiments. In this work, we are co-expressing some of the auxiliary subunits that have been primarily reported to associate with their respective α -subunits in cardiomyocytes. Following cRNA injection, cells were incubated for 72–96 hr in standard ND96 solution (96 mM NaCl, 2 mM KCl, 1 mM MgCl2, 1.8 mM CaCl2, 5 mM HEPES; pH = 7.5) containing 1 mM pyruvate at 16°C prior to electrophysiological recordings.
Xenopus laevis oocytes were recorded in the two-electrode voltage clamp (TEVC) configuration. Recording pipettes were filled with 3 M KCl. The recording chamber was filled with ND96 (96 mM NaCl, 2 mM KCl, 1 mM MgCl2, 1.8 mM CaCl2, 5 mM HEPES; pH 7.5). For Cav1.2/β3/α2δ channel recordings, Xenopus oocytes were injected with 50 nl of 100 mM EGTA and incubated at 10°C for 30 min prior to electrophysiological recordings in order to sequester cytosolic calcium. In addition, Cav1.2/β3/α2δ channel recordings were done in Ca^2+-free solutions, using Ba^2+ as the charge carrier, to prevent calcium-dependent inactivation of Cav1.2/β3/α2δ channels. Calcium-dependent inactivation was not studied in this work, due to the presence of large calcium-activated chloride currents present in Xenopus laevis oocytes. PUFAs were obtained from Cayman Chemical (Ann Arbor, MI.) or synthesized in house (Linköping, Sweden) through methods previously described ([Bohannon et al., 2020]) and kept at −20 °C as 100 mM stock solutions in ethanol. Serial dilutions of the different PUFAs were prepared from stocks to make 0.2 μM, 0.7 μM, 2 μM, 7 μM, and 20 μM concentrations in ND96 solutions (pH = 7.5). PUFAs were perfused into the recording chamber using the Rainin Dynamax Peristaltic Pump (Model RP-1) (Rainin Instrument Co., Oakland, CA. USA).
Electrophysiological recordings were obtained using Clampex 10.3 software (Axon, pClamp, Molecular Devices). To measure Kv7.1/KCNE1 currents we apply PUFAs as the membrane potential is stepped every 30 s from −80 mV to 0 mV for 5 s before stepping to −40 mV and back to −80 mV to ensure that the PUFA effects on the current at 0 mV reached steady state. A voltage-step protocol was used to measure the current vs. voltage (I-V) relationship before PUFA application and after the PUFA effects had reached steady state for each concentration of PUFA. […]

Herg channels = tested on: Herg channels; design: method as in B.H. Bentzen and H. Duff, unpublished data; conditions: up to 10 μM; heterologous systems; ref B.H. Bentzen and H. Duff, unpublished data; cited from earlier work
Cav1.2/β2/α2δ = target: T2, Cav1.2/β2/α2δ (Homo sapiens, UniProt Q13936); test: Two-electrode voltage clamp of Cav1.2/β2/α2δ expressed in Xenopus oocytes; assay type: cell-based; conditions: co-expression with β2 subunit instead of β3
T2 construct: expressed in transfected cells; host or cells: Xenopus laevis oocytes (cRNA injection; no ratio printed for the β2 combination)
Description: Molecular Biology cRNA encoding Kv7.1 (UniProt: P51787), KCNE1 (UniProt: P15382.1), Nav1.5 (UniProt: Q14524.1), Nav β1 (UniProt: […]), Nav β3 (UniProt: […]), Cav1.2 (GenBank: CAA84346), Cav β3 (Uniprot: P54286), Cav β2 (Uniprot: P54288), and Cav α2δ (Uniprot: P13806) were transcribed using the mMessage mMachine T7 kit (Ambion). 50 ng of cRNA was injected into defolliculated Xenopus laevis oocytes (Ecocyte, Austin, TX): For Kv7.1/KCNE1 channel expression, we injected a 3:1, weight:weight (Kv7.1:KCNE1) cRNA ratio. For Nav1.5 channel expression, we injected a 2:1, weight:weight (Nav1.5:β1) cRNA ratio. For Cav1.2 channel expression, we injected a 2:1:1, weight:weight (Cav1.2:β3:α2δ) cRNA ratio. The exact stoichiometry for channel macromolecular complexes, including α -subunits and auxiliary subunits is not clear for many ion channels. For example, there have been multiple reported stoichiometries for Kv7.1:KCNE1 determined in heterologous expression systems with some groups reporting flexible stoichiometry of 4 Kv7.1: 1–4 KCNE1 and others reporting a fixed stoichiometry of 4 Kv7.1: 2 KCNE1 ([Murray et al., 2016]; [Nakajo et al., 2010]). […]
Xenopus laevis oocytes were recorded in the two-electrode voltage clamp (TEVC) configuration. […]

T1 sequence (Q13936 1-2138 isoform Q13936-20): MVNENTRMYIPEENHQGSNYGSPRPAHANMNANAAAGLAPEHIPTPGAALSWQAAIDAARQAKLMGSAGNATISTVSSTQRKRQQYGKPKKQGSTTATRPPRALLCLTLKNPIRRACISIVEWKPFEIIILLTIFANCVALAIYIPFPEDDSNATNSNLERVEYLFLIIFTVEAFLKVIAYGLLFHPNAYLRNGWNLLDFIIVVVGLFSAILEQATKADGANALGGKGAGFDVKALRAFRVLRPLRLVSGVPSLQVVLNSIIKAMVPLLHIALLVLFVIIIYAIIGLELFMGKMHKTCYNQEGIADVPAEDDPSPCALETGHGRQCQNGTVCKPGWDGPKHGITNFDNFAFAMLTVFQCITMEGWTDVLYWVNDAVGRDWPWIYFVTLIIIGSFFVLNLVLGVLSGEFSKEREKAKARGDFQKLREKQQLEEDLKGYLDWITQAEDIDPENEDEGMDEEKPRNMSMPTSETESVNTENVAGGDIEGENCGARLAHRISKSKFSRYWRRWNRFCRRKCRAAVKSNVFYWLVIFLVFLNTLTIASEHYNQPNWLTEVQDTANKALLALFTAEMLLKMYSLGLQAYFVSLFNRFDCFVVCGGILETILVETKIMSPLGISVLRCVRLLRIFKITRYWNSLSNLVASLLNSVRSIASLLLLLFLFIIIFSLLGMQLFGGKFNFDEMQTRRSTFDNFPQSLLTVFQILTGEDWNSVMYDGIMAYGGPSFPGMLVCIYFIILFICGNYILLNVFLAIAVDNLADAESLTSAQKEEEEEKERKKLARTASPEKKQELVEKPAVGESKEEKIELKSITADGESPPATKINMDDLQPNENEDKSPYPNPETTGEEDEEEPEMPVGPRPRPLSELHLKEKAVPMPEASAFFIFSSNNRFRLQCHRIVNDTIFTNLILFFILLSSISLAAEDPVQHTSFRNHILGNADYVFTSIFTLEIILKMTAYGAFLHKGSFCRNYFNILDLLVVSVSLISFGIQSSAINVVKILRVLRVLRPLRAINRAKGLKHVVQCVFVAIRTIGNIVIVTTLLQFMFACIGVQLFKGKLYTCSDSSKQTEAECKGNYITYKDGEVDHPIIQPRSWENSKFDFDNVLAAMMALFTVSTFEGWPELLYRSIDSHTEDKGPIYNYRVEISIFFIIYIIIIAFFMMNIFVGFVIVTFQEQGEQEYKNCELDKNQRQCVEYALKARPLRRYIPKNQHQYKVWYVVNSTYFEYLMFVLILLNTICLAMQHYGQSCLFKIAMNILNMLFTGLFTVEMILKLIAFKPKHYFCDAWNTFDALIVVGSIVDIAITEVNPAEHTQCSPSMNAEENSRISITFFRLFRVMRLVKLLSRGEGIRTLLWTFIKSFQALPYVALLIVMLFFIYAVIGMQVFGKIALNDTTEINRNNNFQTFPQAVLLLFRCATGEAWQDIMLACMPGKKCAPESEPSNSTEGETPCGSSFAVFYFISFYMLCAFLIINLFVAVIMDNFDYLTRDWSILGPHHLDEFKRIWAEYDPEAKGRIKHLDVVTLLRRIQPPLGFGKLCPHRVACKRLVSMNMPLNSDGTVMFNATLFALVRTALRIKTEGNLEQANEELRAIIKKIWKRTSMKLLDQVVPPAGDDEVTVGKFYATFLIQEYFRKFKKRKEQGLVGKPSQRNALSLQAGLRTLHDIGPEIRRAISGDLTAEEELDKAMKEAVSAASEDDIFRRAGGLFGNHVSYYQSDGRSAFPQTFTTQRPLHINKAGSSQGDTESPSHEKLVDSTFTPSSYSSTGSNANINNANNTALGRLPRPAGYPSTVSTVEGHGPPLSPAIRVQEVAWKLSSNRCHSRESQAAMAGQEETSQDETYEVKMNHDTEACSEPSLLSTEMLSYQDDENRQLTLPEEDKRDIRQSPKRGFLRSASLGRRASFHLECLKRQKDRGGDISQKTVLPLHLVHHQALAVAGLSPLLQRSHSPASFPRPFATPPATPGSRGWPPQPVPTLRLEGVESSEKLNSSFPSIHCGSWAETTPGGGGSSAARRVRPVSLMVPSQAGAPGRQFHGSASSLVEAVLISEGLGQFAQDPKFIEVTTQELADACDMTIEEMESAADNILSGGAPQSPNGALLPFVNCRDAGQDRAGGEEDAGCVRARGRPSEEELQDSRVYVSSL
T1 sequence (P54286 whole entry partner): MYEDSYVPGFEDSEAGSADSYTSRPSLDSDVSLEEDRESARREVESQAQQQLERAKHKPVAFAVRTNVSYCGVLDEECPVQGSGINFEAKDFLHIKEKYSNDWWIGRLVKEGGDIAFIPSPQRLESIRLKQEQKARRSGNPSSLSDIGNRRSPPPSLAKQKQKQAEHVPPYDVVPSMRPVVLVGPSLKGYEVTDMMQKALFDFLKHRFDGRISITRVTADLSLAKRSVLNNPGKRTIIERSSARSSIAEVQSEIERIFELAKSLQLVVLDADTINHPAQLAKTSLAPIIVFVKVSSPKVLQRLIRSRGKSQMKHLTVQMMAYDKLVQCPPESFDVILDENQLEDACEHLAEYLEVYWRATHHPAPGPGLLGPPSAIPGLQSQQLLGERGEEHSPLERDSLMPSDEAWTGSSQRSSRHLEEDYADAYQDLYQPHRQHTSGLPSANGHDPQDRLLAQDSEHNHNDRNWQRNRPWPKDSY
T1 sequence (P13806 27-960 partner): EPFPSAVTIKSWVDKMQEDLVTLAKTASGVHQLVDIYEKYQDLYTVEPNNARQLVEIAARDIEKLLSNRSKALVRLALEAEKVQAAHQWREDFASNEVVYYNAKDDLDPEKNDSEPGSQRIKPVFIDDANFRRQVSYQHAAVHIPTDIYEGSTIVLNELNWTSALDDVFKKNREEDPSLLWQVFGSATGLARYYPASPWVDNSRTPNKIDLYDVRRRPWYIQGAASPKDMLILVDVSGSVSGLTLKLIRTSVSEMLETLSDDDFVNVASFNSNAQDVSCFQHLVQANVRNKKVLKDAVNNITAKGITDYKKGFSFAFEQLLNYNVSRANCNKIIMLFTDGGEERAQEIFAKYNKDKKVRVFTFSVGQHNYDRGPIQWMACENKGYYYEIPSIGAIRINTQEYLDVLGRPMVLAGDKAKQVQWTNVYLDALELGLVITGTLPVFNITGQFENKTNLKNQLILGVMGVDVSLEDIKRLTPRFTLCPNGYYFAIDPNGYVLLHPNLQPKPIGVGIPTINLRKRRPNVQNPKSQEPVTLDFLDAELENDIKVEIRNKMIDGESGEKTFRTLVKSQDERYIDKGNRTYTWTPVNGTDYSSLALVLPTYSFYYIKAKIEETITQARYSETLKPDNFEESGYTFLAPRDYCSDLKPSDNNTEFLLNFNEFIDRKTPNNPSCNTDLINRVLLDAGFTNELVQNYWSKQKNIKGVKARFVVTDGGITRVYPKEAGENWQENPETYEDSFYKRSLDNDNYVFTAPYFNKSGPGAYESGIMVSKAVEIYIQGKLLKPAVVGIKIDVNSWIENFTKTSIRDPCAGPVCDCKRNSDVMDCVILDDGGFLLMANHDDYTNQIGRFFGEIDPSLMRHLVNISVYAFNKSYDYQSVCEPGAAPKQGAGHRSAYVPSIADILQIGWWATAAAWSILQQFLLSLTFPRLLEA
T1 sequence (P13806 961-1106 partner): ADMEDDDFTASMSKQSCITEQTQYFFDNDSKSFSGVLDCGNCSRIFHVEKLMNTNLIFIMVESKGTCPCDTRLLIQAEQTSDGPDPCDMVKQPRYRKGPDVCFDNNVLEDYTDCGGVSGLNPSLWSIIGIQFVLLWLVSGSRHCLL
T2 sequence (Q13936 1-2138 isoform Q13936-20, other chains not shown): as the sequence (Q13936 1-2138 isoform Q13936-20) above
T2 sequence (P13806 27-960 partner, other chains not shown): as the sequence (P13806 27-960 partner) above
T2 sequence (P13806 961-1106 partner, other chains not shown): as the sequence (P13806 961-1106 partner) above

Structure (SMILES) | Gmax/Gmax0 (Cav1.2/β3/α2δ; 0.2 μM) | ΔV0.5 (voltage dependence of inactivation) (Cav1.2/β3/α2δ; 0.2 μM) [mV] | ICa I/I0 (Cav1.2/β3/α2δ; 0.2 μM) | Gmax/Gmax0 (Cav1.2/β3/α2δ; 0.7 μM) | ΔV0.5 (voltage dependence of inactivation) (Cav1.2/β3/α2δ; 0.7 μM) [mV] | ICa I/I0 (Cav1.2/β3/α2δ; 0.7 μM) | Gmax/Gmax0 (Cav1.2/β3/α2δ; 2 μM) | ΔV0.5 (voltage dependence of inactivation) (Cav1.2/β3/α2δ; 2 μM) [mV] | ICa I/I0 (Cav1.2/β3/α2δ; 2 μM) | Gmax/Gmax0 (Cav1.2/β3/α2δ; 7 μM) | ΔV0.5 (voltage dependence of inactivation) (Cav1.2/β3/α2δ; 7 μM) [mV] | Gmax/Gmax0 (Cav1.2/β3/α2δ; 20 μM) | ΔV0.5 (voltage dependence of inactivation) (Cav1.2/β3/α2δ; 20 μM) [mV] | ICa I/I0 (Cav1.2/β3/α2δ; 20 μM) | effects on currents through Herg channels (Herg channels) | response of Cav1.2/β2/α2δ compared with Cav1.2/β3/α2δ (Cav1.2/β2/α2δ) | ICa I/I0 (Cav1.2/β3/α2δ; 7 μM) | other results
CC/C=C\C/C=C\C/C=C\C/C=C\C/C=C\C/C=C\CCC(=O)NCC(=O)O [DHA-glycine, docosahexaenoyl glycine] | 1.0 ± 0.1 | 6.1 ± 3.5 | 0.9 ± 0.1 | 1.1 ± 0.1 | 6.4 ± 4.3 | 1.0 ± 0.1 | 1.1 ± 0.1 | 6.1 ± 4.2 | 0.9 ± 0.1 | 1.0 ± 0.1 | 7.6 ± 3.1 | 1.0 ± 0.1 | 5.2 ± 4.4 | 0.9 ± 0.1 | neither N-AT nor DHA-glycine up to 10 μM had any significant effects | – | – | –
CCCCC/C=C\C/C=C\CCCCCCCC(=O)NCC(=O)O [Lin-glycine] | 1.1 ± 0.03 | 0.1 ± 1.7 | 0.9 ± 0.1 | 1.1 ± 0.04 | -0.7 ± 1.8 | 0.9 ± 0.1 | 1.2 ± 0.1 | -2.9 ± 1.4 | 0.9 ± 0.1 | 1.0 ± 0.1 | −3.0 ± 1.6 | 1.0 ± 0.1 | -3.7 ± 1.5 | 0.7 ± 0.1 | – | no differences between Cav1.2/β3/α2δ and Cav1.2/β2/α2δ | – | ΔV0.5 (voltage dependence of inactivation) (Cav1.2/β3/α2δ; 7 μM, listed as lin-glycine): -3.0 ± 1.6 mV; ICa I/I0 (Cav1.2/β3/α2δ; 7 μM, listed as lin-glycine): 0.8 ± 0.1
CCCCC/C=C\C/C=C\CCCCCCCC(=O)NCCS(=O)(=O)O [Lin-taurine, Linoleoyl taurine] | 1.0 ± 0.02 | 0.6 ± 0.5 | 1.0 ± 0.02 | 0.9 ± 0.02 | 0.9 ± 0.9 | 0.9 ± 0.1 | 0.7 ± 0.05 | -0.3 ± 1.8 | 0.7 ± 0.1 | 0.6 ± 0.05 | −1.9 ± 2.5 | 0.5 ± 0.04 | -1.2 ± 4.4 | 0.5 ± 0.1 | – | no differences between Cav1.2/β3/α2δ and Cav1.2/β2/α2δ | 0.6 ± 0.1 (p=0.01) | ΔV0.5 (voltage dependence of inactivation) (Cav1.2/β3/α2δ; 7 μM, listed as lin-taurine): -1.9 ± 2.5 mV; ICa I/I0 (Cav1.2/β3/α2δ; 7 μM, listed as lin-taurine): 0.6 ± 0.1; shift of the voltage dependence of activation (Cav1.2/β3/α2δ; 0.2-20 μM): without shifting the voltage-dependence of Cav1.2/β3/α2δ activation
CCCCC/C=C\C/C=C\C/C=C\C/C=C\CCCC(=O)NCCS(=O)(=O)O [N-AT, N-arachidonoyl taurine] | 0.9 ± 0.02 | 0.4 ± 0.3 | 0.9 ± 0.1 | 0.9 ± 0.1 | 0.5 ± 1.0 | 0.9 ± 0.1 | 0.8 ± 0.03 | 0.2 ± 2.2 | 0.9 ± 0.1 | 0.7 ± 0.1 | 0.6 ± 2.0 | 0.6 ± 0.03 | 1.4 ± 1.7 | 0.7 ± 0.1 | neither N-AT nor DHA-glycine up to 10 μM had any significant effects | – | – | –
CCCCC/C=C\C/C=C\CC/C=C\CCCC(=O)NCC(=O)O [Pin-glycine] | 0.9 ± 0.1 | -3.2 ± 3.0 | 0.7 ± 0.1 | 0.9 ± 0.1 | -3.3 ± 3.4 | 0.8 ± 0.1 | 0.9 ± 0.1 | -4.3 ± 4.1 | 0.8 ± 0.1 | 0.8 ± 0.1 | −3.1 ± 4.2 | 0.7 ± 0.2 | -3.4 ± 5.6 | 0.6 ± 0.2 | – | – | 0.8 ± 0.1 (p=0.26) | Gmax/Gmax0 (Cav1.2/β3/α2δ; 7 μM, listed as pin-glycine): 0.8 ± 0.2; ΔV0.5 (voltage dependence of inactivation) (Cav1.2/β3/α2δ; 7 μM, listed as pin-glycine): -3.1 ± 4.2 mV; ICa I/I0 (Cav1.2/β3/α2δ; 7 μM, listed as pin-glycine): 0.8 ± 0.1
CCCCC/C=C\C/C=C\CC/C=C\CCCC(=O)NCCS(=O)(=O)O [Pin-taurine] | 0.9 ± 0.1 | 2.7 ± 1.9 | 0.7 ± 0.1 | 1.0 ± 0.1 | 3.9 ± 1.9 | 0.8 ± 0.1 | 1.0 ± 0.1 | 3.7 ± 1.8 | 0.8 ± 0.1 | 0.8 ± 0.1 | 4.1 ± 2.2 | 0.6 ± 0.1 | 6.0 ± 4.1 | 0.5 ± 0.1 | – | – | 0.7 ± 0.1 (p=0.02) | ICa I/I0 (Cav1.2/β3/α2δ; 7 μM, listed as pin-taurine): 0.7 ± 0.1
